From paper PMC9487190 (Parasitology research, 2022)

Tests used:
[1] = system: human cystic echinococcosis (CE); details: ref Gottstein et al., 2015; Hemphill et al., 2014; cited from earlier work
EgSERT [2] = biological target: T1, EgSERT (Echinococcus granulosus, UniProt W6UF91); format: cell-based; details: 50 nM radiolabeled substrate, 10 min, room temperature, COS-7 cells
[3] = system: protoscoleces of E. granulosus; details: 100 μM; ref Camicia et al., 2013; Herz and Brehm, 2021; cited from earlier work
EgSERT [4] = biological target: T1, EgSERT; format: cell-based; details: at around 1 μM
S. mansoni miracidia = details: exogenously added, 50 μM; ref Taft et al., 2010; cited from earlier work
[5] = system: E. multilocularis metacestode vesicles and primary cells; details: ref Herz and Brehm (2021), cited from earlier work
EgSERT [6] = biological target: T1, EgSERT; format: cell-based; details: COS-7 cells, 15 nM – 10 μM serotonin, 10 min

## CCCSc1ccc2nc(NC(=O)OC)[nH]c2c1 [ABZ, albendazole]
[1]
  share of CE cases in which treatment is ineffective: ~ 40%

## NCCCC(=O)O [GABA]
EgSERT [2]
  transport of radiolabeled substrate by EgSERT compared with background: does not transport

## CN(C)CCCC1(c2ccc(F)cc2)OCc2cc(C#N)ccc21 (stereo not drawn) [citalopram]
[3]
  effect on motility and development of protoscoleces: strong inhibitory effect
EgSERT [4]
  inhibition of serotonin transport by EgSERT: almost complete inhibition
S. mansoni miracidia
  effect on miracidial transformation rates: detrimental effect

## NCCc1ccc(O)c(O)c1 [dopamine]
EgSERT [2]
  transport of radiolabeled substrate by EgSERT compared with background: does not transport

## N[C@@H](CCC(=O)O)C(=O)O [glutamate, glutamic acid]
EgSERT [2]
  transport of radiolabeled substrate by EgSERT compared with background: does not transport

## NCC(=O)O [glycine]
EgSERT [2]
  transport of radiolabeled substrate by EgSERT compared with background: does not transport

## Fc1ccc([C@@H]2CCNC[C@H]2COc2ccc3c(c2)OCO3)cc1 [paroxetine]
[5]; 100 μM
  metacestode vesicle damage and viability of primary cell culture: significant metacestode vesicle damage and cell viability reduction

## NCCc1c[nH]c2ccc(O)cc12 [serotonin, 5-hydroxytryptamine]
EgSERT [2]
  transport of radiolabeled substrate by EgSERT compared with background: significantly higher accumulation
[5]; exogenous, dose dependent
  metacestode vesicle formation and cell proliferation from primary cells: induces metacestode vesicle formation and cell proliferation
EgSERT [6]
  Vmax of serotonin uptake: 615 ± 33 fmol/min/well
